Legend:
Assay in all cases: relative viability (nuclei count vs DMSO), 5 days (fraction); higher = more cells survive
Vemurafenib + Linsitinib = compound: CCCS(=O)(=O)Nc1ccc(F)c(C(=O)c2c[nH]c3ncc(-c4ccc(Cl)cc4)cc23)c1F [Vemurafenib] + C[C@]1(O)C[C@@H](c2nc(-c3ccc4ccc(-c5ccccc5)nc4c3)c3c(N)nccn32)C1 [Linsitinib] (partner 1 µM)
How it was run: (§1)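 Relative viability equals treated-well nuclei counts divided by vehicle-well nuclei counts. Counts came from 4× images of lung cancer cell lines grown in 1536-well plates for 5 days after pin-tool dosing on the day after seeding. Dosing used one drug alone or a fixed anchor-drug dose plus five library-drug doses (not always all listed) in √10 steps, and values are medians of duplicate plates.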

Vemurafenib + Pictilisib = compound: CCCS(=O)(=O)Nc1ccc(F)c(C(=O)c2c[nH]c3ncc(-c4ccc(Cl)cc4)cc23)c1F [Vemurafenib] + CS(=O)(=O)N1CCN(Cc2cc3nc(-c4cccc5[nH]ncc45)nc(N4CCOCC4)c3s2)CC1 [Pictilisib] (partner 1 µM)
How it was run: as §1

Alpelisib + Phenformin = compound: Cc1nc(NC(=O)N2CCC[C@H]2C(N)=O)sc1-c1ccnc(C(C)(C)C(F)(F)F)c1 [Alpelisib] + N=C(N)NC(=N)NCCc1ccccc1 [Phenformin] (partner 250 µM)
How it was run: as §1

Alpelisib + OSI-027 = compound: Cc1nc(NC(=O)N2CCC[C@H]2C(N)=O)sc1-c1ccnc(C(C)(C)C(F)(F)F)c1 [Alpelisib] + COc1cccc2cc(-c3nc([C@H]4CC[C@H](C(=O)O)CC4)n4ncnc(N)c34)[nH]c12 [OSI-027] (partner 0.5 µM)
How it was run: as §1

Cell Line	relative viability (Vemurafenib + Linsitinib; first compound 0.03162 µM)	relative viability (Vemurafenib + Linsitinib; first compound 0.1 µM)	relative viability (Vemurafenib + Linsitinib; first compound 0.3162 µM)	relative viability (Vemurafenib + Linsitinib; first compound 1 µM)	relative viability (Vemurafenib + Pictilisib; first compound 0.03162 µM)	relative viability (Vemurafenib + Pictilisib; first compound 0.1 µM)	relative viability (Vemurafenib + Pictilisib; first compound 0.3162 µM)	relative viability (Vemurafenib + Pictilisib; first compound 1 µM)	relative viability (Alpelisib + Phenformin; first compound 0.04 µM)	relative viability (Alpelisib + Phenformin; first compound 0.1265 µM)	relative viability (Alpelisib + Phenformin; first compound 0.4 µM)	relative viability (Alpelisib + Phenformin; first compound 1.265 µM)	relative viability (Alpelisib + Phenformin; first compound 4 µM)	relative viability (Alpelisib + OSI-027; first compound 0.04 µM)	relative viability (Alpelisib + OSI-027; first compound 0.1265 µM)	relative viability (Alpelisib + OSI-027; first compound 0.4 µM)	relative viability (Alpelisib + OSI-027; first compound 1.265 µM)	relative viability (Alpelisib + OSI-027; first compound 4 µM)
A-427	1.09	1.1	1.03	1.15	0.751	0.754	0.564	0.738	0.354	0.212	0.329	0.26	0.243	0.509	0.411	0.456	0.351	0.308
NCI-H1703	0.738	0.644	0.637	0.787	0.245	0.21	0.233	0.252										
HCC-366	0.637	0.603		0.601	0.137	0.15		0.163	0.639	0.608	0.636	0.428	0.139	0.867	0.877	0.762	0.473	0.355
NCI-H661	0.573	0.516	0.663	0.637	0.347	0.351	0.292	0.433	0.285	0.281	0.253	0.245	0.262	0.628	0.668	0.709	0.523	0.493
NCI-H2126	0.804	0.699	0.757	0.681	0.494	0.4	0.572	0.471	0.541	0.498	0.501	0.381	0.343	0.796	0.67	0.667	0.576	0.38
LCLC-97TM1	0.181	0.212	0.175	0.157	0.195	0.194	0.39	0.149	0.493	0.439	0.385	0.248	0.19	0.434	0.391	0.243	0.181	0.1
NCI-H2405	0.952	0.776		0.983	0.347	0.467		0.48	0.371	0.345	0.368	0.304	0.272	0.588	0.534	0.639	0.417	0.384
COR-L 105	1		1.3	1.17	0.467		0.406	0.368	0.446	0.593	0.669	0.416	0.415	0.715	0.567	0.846	0.527	0.513
BEN	0.913	0.921	0.683	0.724	0.529	0.593	0.358	0.431	0.262	0.239	0.267	0.296	0.281	0.295	0.299	0.276	0.315	0.245
HCC-827	0.878		0.924	0.926	0.791		1.03	0.981	0.424	0.419	0.338	0.371	0.303	0.808	0.803	0.689	0.57	0.384
NCI-H3122	1	0.895	1.01	1.13	0.596	0.596	0.798	0.69	0.409	0.403	0.41	0.399	0.316	0.928	0.791	0.648	0.37	0.176
NCI-H1299	1.02	0.958	0.83	0.951	0.732	0.719	0.843	0.622										
LK-2	0.409	0.525	0.811	0.417	0.618	0.49	0.661	0.425	0.4	0.233	0.213	0.226	0.161	0.215	0.208	0.16	0.142	0.158
HCC-15	0.855	0.743	0.964	0.824	0.653	0.773	0.727	0.578	0.5	0.434	0.45	0.372	0.274	0.623	0.563	0.589	0.484	0.339
IA-LM	0.537	0.53	0.603	0.554	0.309	0.358	0.758	0.476										
NCI-H1755	0.946	0.889	0.978	0.91	0.342	0.347	0.314	0.381	0.653	0.601	0.68	0.574	0.433	0.684	0.575	0.719	0.55	0.509
EMC-BAC-2	0.798	0.695	0.807	0.807	0.46	0.474	0.454	0.544	0.539	0.482	0.498	0.44	0.34	0.368	0.329	0.334	0.285	0.218
NCI-H838	0.979	1.01		1.14	0.401	0.445		0.626	0.523	0.507	0.549	0.41	0.355	0.386	0.366	0.317	0.244	0.211
NCI-H1650					0.487		0.581	0.601	0.405	0.408	0.43	0.362	0.308	0.637	0.561	0.529	0.433	0.374
NCI-H1975	1	0.962	0.725	1.05	0.279	0.278	0.232	0.332	0.417	0.41	0.387	0.298	0.208	0.675	0.714	0.656	0.326	0.228
NCI-H522									0.573	0.601	0.782	0.5	0.582	0.722	0.622	0.605	0.629	0.5

Cell Line	relative viability (Vemurafenib + Linsitinib; first compound 0.03162 µM)	relative viability (Vemurafenib + Linsitinib; first compound 0.1 µM)	relative viability (Vemurafenib + Linsitinib; first compound 0.3162 µM)	relative viability (Vemurafenib + Linsitinib; first compound 1 µM)	relative viability (Vemurafenib + Pictilisib; first compound 0.03162 µM)	relative viability (Vemurafenib + Pictilisib; first compound 0.1 µM)	relative viability (Vemurafenib + Pictilisib; first compound 0.3162 µM)	relative viability (Vemurafenib + Pictilisib; first compound 1 µM)	relative viability (Alpelisib + Phenformin; first compound 0.04 µM)	relative viability (Alpelisib + Phenformin; first compound 0.1265 µM)	relative viability (Alpelisib + Phenformin; first compound 0.4 µM)	relative viability (Alpelisib + Phenformin; first compound 1.265 µM)	relative viability (Alpelisib + Phenformin; first compound 4 µM)	relative viability (Alpelisib + OSI-027; first compound 0.04 µM)	relative viability (Alpelisib + OSI-027; first compound 0.1265 µM)	relative viability (Alpelisib + OSI-027; first compound 0.4 µM)	relative viability (Alpelisib + OSI-027; first compound 1.265 µM)	relative viability (Alpelisib + OSI-027; first compound 4 µM)
NCI-H1437	0.972	0.959	0.918	0.871	0.445	0.376	0.512	0.333	0.326	0.296	0.291	0.232	0.215	0.796	0.842	0.754	0.527	0.319
NCI-H1666	0.853		0.922	0.841	0.387		0.482	0.331	0.557	0.602	0.576	0.591	0.564	0.837	0.826	0.807	0.609	0.536
NCI-H647	1.08	0.971	1.03	1.14	0.343	0.39		0.434	0.396	0.421	0.53	0.378	0.359	0.614	0.576	0.626	0.392	0.471
NCI-H1623									0.548	0.545	0.516	0.532	0.426	0.494	0.338	0.383	0.34	0.28
NCI-H23	0.621	0.605	0.715	0.59	0.531	0.493	0.476	0.452	0.779	0.702	0.783	0.605	0.506	0.672	0.485	0.521	0.363	0.314
NCI-H1915	1.05	1	1.05	1.04	0.751	0.903	0.908	0.85	0.361	0.378	0.389	0.346	0.347	0.628	0.597	0.61	0.558	0.401
HOP-62	0.78	1.01	0.94	0.841	0.739	0.589	0.517	0.458	0.642	0.611	0.761	0.561	0.633	0.822	0.793	0.949	0.626	0.589
NCI-H2342									0.606	0.587	0.559	0.519	0.439	0.626	0.594	0.553	0.559	0.421
NCI-H520	1.06	1.13	1.02	0.956	0.283	0.369	0.372	0.268	0.55	0.439	0.417	0.316	0.311	0.21	0.239	0.229	0.188	0.189
COR-L23	0.774	0.733	0.789	1.01	0.684	0.615	0.598	0.544	0.388	0.414	0.49	0.402	0.36	0.81	0.713	0.938	0.566	0.492
A549	0.584	0.444	0.515	0.567	0.532	0.43	0.607	0.453	0.147	0.21	0.172	0.16	0.115					
H3255	1		0.757	0.983	0.474		0.48	0.452	0.352	0.375	0.336	0.25	0.335	0.526	0.583	0.635	0.363	0.384
NCI-H1993	0.668		0.882	0.746	0.767		0.801	0.831	0.501	0.534	0.443	0.539	0.507	0.596	0.492	0.524	0.571	0.521
NCI-H1792	0.505	0.417	0.484	0.516	0.272	0.249	0.259	0.234	0.593	0.262	0.291	0.0902	0.0842	0.653	0.866	0.677	0.44	0.292
SW 1573	0.791	0.886	0.935	0.795	0.475	0.511	0.585	0.52	0.306	0.335	0.272	0.217	0.257	0.661	0.438	0.571	0.404	0.337
EBC-1	0.859	0.822	0.891	1.02	0.36	0.335	0.335	0.36										
NCI-H2170					0.305	0.157	0.254	0.293	0.466	0.384	0.438	0.45	0.387	0.695	0.612	0.663	0.589	0.39
Calu-6		0.981	0.745	0.927	0.888	0.902	0.741	0.822										
ChaGo-K-1					0.657	0.587		0.625	0.495	0.495	0.453	0.435	0.346	0.543	0.592	0.49	0.394	0.342
NCI-H1648															0.229	0.244	0.282	0.228
SW 900									0.561	0.525	0.449	0.474	0.347	0.527	0.524	0.742	0.568	0.45

— the supplement of paper PMC10307832
